Data as given in ChEMBL document CHEMBL4152218, “Novel hydrazide-hydrazone and amide substituted coumarin derivatives: Synthesis, cytotoxicity screening, microarray, radiolabeling and in vivo pharmacokinetic studies” (Eur J Med Chem, 2018).

What was measured:
[1] = Selectivity index, ratio of IC50 for hTERT-RPE1 cells to IC50 for human HepG2 cells; assay type: toxicity; settings: hTERT-RPE1 cells versus HepG2 cells, read-out: Ratio IC50
TERT-RPE1 [2] = assay: Cytotoxicity against hTERT-RPE1 cells at 50 uM after 48 hrs by resazurin dye-based fluorescence assay relative to control; assay type: cell-based; settings: human, tert-rpe1, 48 h
[3] = Selectivity index, ratio of IC50 for hTERT-RPE1 cells to IC50 for human CCRF-CEM cells; assay type: toxicity; settings: hTERT-RPE1 cells versus CCRF-CEM cells, read-out: Ratio IC50
PANC-1 [4] = assay: Induction of apoptosis in human PANC1 cells assessed as increase in caspase-3/7 activity after 24 hrs by Caspase-Glo 3/7 luminescence assay; assay type: functional, cell-based
[5] = Selectivity index, ratio of IC50 for hTERT-BJ cells to IC50 for human HepG2 cells; assay type: toxicity; settings: hTERT-BJ cells versus HepG2 cells, read-out: Ratio IC50
TERT-RPE1 [6] = assay: Cytotoxicity against hTERT-RPE1 cells at 12.50 uM after 48 hrs by resazurin dye-based fluorescence assay relative to control; assay type: cell-based; settings: human, tert-rpe1, 48 h, 12.5 µM
[7] = Selectivity index, ratio of IC50 for hTERT-BJ cells to IC50 for human PANC1 cells; assay type: toxicity; settings: hTERT-BJ cells versus PANC1 cells, read-out: Ratio IC50
TERT-RPE1 [8] = assay: Cytotoxicity against hTERT-RPE1 cells at 6.25 uM after 48 hrs by resazurin dye-based fluorescence assay relative to control; assay type: cell-based; settings: human, tert-rpe1, 48 h
PANC-1 [9] = assay: Antiproliferative activity against human PANC1 cells after 48 hrs by resazurin dye-based fluorescence assay; assay type: functional, cell-based; settings: PANC-1, 48 h
hTERT-BJ [10] = assay: Cytotoxicity against hTERT-BJ cells at 25 uM after 48 hrs by resazurin dye-based fluorescence assay relative to control; assay type: cell-based; settings: human
hTERT-BJ [11] = assay: Cytotoxicity against hTERT-BJ cells at 6.25 uM after 48 hrs by resazurin dye-based fluorescence assay relative to control; assay type: cell-based; settings: human
TERT-RPE1 [12] = assay: Cytotoxicity against hTERT-RPE1 cells at 25 uM after 48 hrs by resazurin dye-based fluorescence assay relative to control; assay type: cell-based; settings: human, tert-rpe1, 48 h
hTERT-BJ [13] = assay: Cytotoxicity against hTERT-BJ cells after 48 hrs by resazurin dye-based fluorescence assay; assay type: cell-based; settings: Homo sapiens
CCRF-CEM = assay: Antiproliferative activity against human CCRF-CEM cells after 48 hrs by resazurin dye-based fluorescence assay; assay type: functional, cell-based
HepG2 [14] = assay: Antiproliferative activity against human HepG2 cells after 48 hrs by resazurin dye-based fluorescence assay; assay type: functional, cell-based; settings: HepG2, 48 h
TERT-RPE1 [15] = assay: Cytotoxicity against hTERT-RPE1 cells after 48 hrs by resazurin dye-based fluorescence assay; assay type: cell-based; settings: Homo sapiens, RPE-1, 48 h
[16] = Selectivity index, ratio of IC50 for hTERT-BJ cells to IC50 for human CCRF-CEM cells; assay type: toxicity; settings: hTERT-BJ cells versus CCRF-CEM cells, read-out: Ratio IC50
[17] = Selectivity index, ratio of IC50 for hTERT-RPE1 cells to IC50 for human PANC1 cells; assay type: toxicity; settings: hTERT-RPE1 cells versus PANC1 cells, read-out: Ratio IC50
HepG2 [18] = assay: Induction of apoptosis in human HepG2 cells assessed as increase in caspase-3/7 activity after 24 hrs by Caspase-Glo 3/7 luminescence assay; assay type: functional, cell-based
hTERT-BJ [19] = assay: Cytotoxicity against hTERT-BJ cells at 50 uM after 48 hrs by resazurin dye-based fluorescence assay relative to control; assay type: cell-based; settings: human
hTERT-BJ [20] = assay: Cytotoxicity against hTERT-BJ cells at 12.50 uM after 48 hrs by resazurin dye-based fluorescence assay relative to control; assay type: cell-based; settings: human, 12.5 µM

| Compound | selectivity ratio [1] | Activity (TERT-RPE1 [2]) [%] | selectivity ratio [3] | Activity (PANC-1 [4]) | selectivity ratio [5] | Activity (TERT-RPE1 [6]) [%] | selectivity ratio [7] | Activity (TERT-RPE1 [8]) [%] | IC50 (PANC-1 [9]) [µM] | Activity (hTERT-BJ [10]) [%] | Activity (hTERT-BJ [11]) [%] | Activity (TERT-RPE1 [12]) [%] | IC50 (hTERT-BJ [13]) [µM] | IC50 (CCRF-CEM) [µM] | IC50 (HepG2 [14]) [µM] | IC50 (TERT-RPE1 [15]) [µM] | selectivity ratio [16] | selectivity ratio [17] | Activity (HepG2 [18]) | Activity (hTERT-BJ [19]) [%] | also measured |
| --- | --- | --- | --- | --- | --- | --- | --- | --- | --- | --- | --- | --- | --- | --- | --- | --- | --- | --- | --- | --- | --- |
| CCOc1ccc2nc(Cl)c(/C=N/NC(=O)c3cc4cc([N+](=O)[O-])ccc4oc3=O)cc2c1 | > 2.77 | 10.48 | > 3.19 | Dose-dependent effect | > 2.77 | 3.92 | > 4.75 | 1.74 | 10.5 | 2.13 | 1.58 | 5.6 | > 50 | 15.7 | 18.1 | > 50 | > 3.19 | > 4.75 | Dose-dependent effect | 3.33 | Activity (hTERT-BJ [20]): 1.38% |
| O=C(N/N=C/c1ccncc1)c1cc2cc(Br)ccc2oc1=O | > 10.2 | 39.96 | > 7.88 | Dose-dependent effect | > 10.2 | 17.16 | > 1.94 | 9.63 | 25.7 | 1.37 | 0.6 | 34.5 | > 50 | 6.34 | 4.89 | > 50 | > 7.88 | > 1.94 | Dose-dependent effect | 2.52 | Activity (hTERT-BJ [20]): 0.2% |
